This note sets out measurements from patent publication US6486195B1, “Thermodynamically stable crystal form of 4″-deoxy-4″-epi-methylamino avermectin B1a/B1b benzoic acid salt and processes for its preparation” (Merck & Co., Inc., priority 1993, dated 2002).

The nature of data set [1]: hygroscopicity of the crystal forms. In kind it is physicochemical. The settings on record: compared with the other crystal forms (A, C, D).
Data set [2] in a line: thermodynamic stability of the crystalline forms. Format: physicochemical. To be noted: among the four crystalline forms A, B, C and D.

For “4″-deoxy-4″-epi-methylamino avermectin B1a/B1b, benzoic acid salt, hemihydrate [Type B]”, the hygroscopicity result in data set [1] was “significantly less hygroscopic”. The “thermodynamic stability of crystalline form” value in data set [2] is given as “most thermodynamically stable”.
